Tests used:
Runx2 [1] = assay: 6XOSE/Luc luciferase reporter assay of Runx2 transcriptional activity in MC4 cells; assay type: cell-based
Description: Further to examine whether the increased expression of Runx2, which is a transcription factor, affects the expression of other genes regulated by Runx2, the following experiments were performed. For this, MC4 cells were seeded onto each well of a 96 well plate at the concentration of 20,000 cells/well and the cells were transfected with a plasmid 6XOSE/Luc reporter vector (Journal of Biological Chemistry. 285: 3568-3574 (2010)) which expresses luciferase gene under the control of osteocalcin using Lipofectamin® (Life technologies, Inc) according to the manufacturer's instruction. The promoter in the plasmid contains […] to each of which Runx2 binds. By binding of Runx2 to the motif, the expression of luciferase increases. After 16 hrs after the transfection, MDP at the concentration as indicated in FIG. 3 was added to the cells. After 24 hrs, the cells were lysed and the luciferase activity was measured using Luciferase detection kit (Promega, USA) according to the manufacturer's instruction to quantify the mRNA level of osteocalcin gene, which is affected by Runx2.
In addition to MDP as used in Example 2-1, as a derivative thereof, M-TriLYS (MurNAc-Ala-D-isoGln-Lys, N-acetylmuramyl-L-alanine-D-isoglutamine-lysine) and 6-O-stearoyl-N-acetylmuramyl-L-alanyl-D-isoglutamine (L18-MDP) were used to examine the effect of the derivatives on the expression of Runx2 at transcription level. M-TriLYS is a muropeptide obtainable from peptidoglycans of lactobacillus or salivarius and contains in its structure muramyl dipeptide. L18-MDP is a MDP derivative containing C18 fatty acid.

[2] = tested on: RANKL-primed osteoclast precursors; assay: Osteoclast differentiation from RANKL-primed osteoclast precursors, TRAP staining; conditions: 20 ng/ml M-CSF, 3 days; FIG. 7 right graph
Description: Bone marrow cells (BMs) were isolated from the long bones of mouse and were cultured in α-MEM supplemented with 10% FBS, 100 U/ml penicillin and 100 μg/ml streptomycin, and 2 ng/ml M-CSF for 1 day. Suspended cells were differentiated into BMMs with 20 ng/ml M-CSF for 3 days. […] To make RANKL-primed osteoclast precursors, the BMMs were stimulated with 20 ng/ml mouse RANKL for 48 h. The BMMs were incubated with 20 ng/ml M-CSF in the presence or absence of MDP for additional 3 days.
The differentiation was determined by tartrate resistant acid phosphatase (TRAP) staining using Leukocyte acid phosphate-staining kit (Sigma-Aldrich Chemical, USA) according to the manufacturer's instruction. After the staining, TRAP-positive multinucleated cells with at least 3 nuclei were enumerated as mature osteoclasts with an inverted phase-contrast microscope and results are shown in FIG. 7.

[3] = tested on: mouse model treated with GST-RANKL; assay: GST-RANKL induced bone loss mouse model, microCT bone volume; assay type: in vivo; conditions: pretreatment 1.25 mg/kg i.p. twice, then GST-RANKL 1 mg/kg i.p. three times; vs controls not pretreated; FIG. 8
Description: Muramyl dipeptide was administered to a mouse by an intraperitoneal injection two times with four day interval between the administration at the concentration of 1.25 mg/kg. After 3 days of the administration, GST-RANKL recombinant protein was intraperitoneally administered at the concentration of 1 mg/kg three times with a 24 hr interval between the administrations, The bone volume was analyzed at 1 day after the last administrated with GST-RANKL. The recombinant protein was prepared using a RANKL expression vector, pGEX-GST-RANKL (J. Clin Invest. 106:1481-1488 (2000)), which was expressed in E. coli and the protein was purified using a sepharose gel attached with glutathione (glutathione-sepharose gels, Sigma-Aldrich). The purified protein was then treated with Detoxi-gel endotoxin removing gel (Thermo Scientific, USA) to remove endotoxin and used for the experiment. Seven days after the administration, mice were sacrificed and the bone volume was measured using a microCT. As controls, mice treated only with physiological saline, GST-RANKL or physiological saline and GST-RANKL in a consecutive order were used.

WT C57BL/6 (B6) mice [4] = assay: Histological observation (H&E) of mouse femur; assay type: in vivo; conditions: 1.25 mg/kg i.p. twice, vs physiological saline control; FIG. 6
Description: (§1) To each mouse, 1.25 mg/kg of MDP prepared as described in Example 1 was administered twice with a 4 day interval by intraperitoneal injection. Physiological saline was used as a control. The second injection was given 4 days after the first injection and after 3 days the mice were sacrificed and used for bone volume analysis.
The femur used for the analysis of bone volume in Example 3-3 was used for a histological observation. For this, the femur was demineralized in 10% EDTA for 7 days and washed with running water for 12 hrs in a tissue capsule. After that, the femur was treated with alcohol and xylene and embedded in paraffin, from which sections having a thickness of 4 μm were prepared. The sections were then placed on a slide glass and deparaffinized at 65° C. for 30 min and treated with Hematoxylin and Eosin according to the conventional method.
The slides were then examined with a light microscope to observe the bone formation.

[5] = tested on: osteoblast cell line MC4 cells (MC3T3-E1 Subclone 4); assay: Osteoblast differentiation by alkaline phosphatase (ALP) staining, MC4 cells; assay type: cell-based; conditions: 0.1, 1 and 10 μg/ml MDP, 5 days, differentiation medium; FIG. 1
Description: N-acetylmuramyl-L-Alanyl-D-Isoglutamine commercially available from Invivogen Inc. was dissolved in endotoxin free purified water to make a solution of 5 mg/ml. To assess the effect of muramyl dipeptide on the differentiation of osteoblast, osteoblast cell line MC4 cells (ATCC CRL-2593:MC3T3-E1 Subclone 4) were incubated in an ascorbic acid free-αMEM medium containing 10% fetal bovine serum, 50 unit/ml penicillin, 50 μg/ml streptomycin at 37° C. under 100% humidity and 5% CO2 atmosphere. The medium was changed every 3 days.
Then MC4 cells were seeded onto each well of a 48 well plate at the concentration of 20,000 cells/well and then after 16 hrs, each well was treated for 5 days with 400 μl of 0, 0.1, 1 and 10 μg/ml of MDP as prepared above in the differentiation medium (50 μg/ml ascorbic acid and 10 mM beta-glycerophosphate containing αMEM), during which half of the medium was changed twice with the differentiation medium. The effect on the differentiation was analyzed using alkaline phosphatase (ALP) staining. Results are shown in FIG. 1, in which the effect on the differentiation was determined by the number of cells showing red-purple color as well as the intensity of the color. […] Each experiment was repeated at least 3 times.

Runx2 [6] = assay: Immunoblot of Runx2 protein in MC4 cells; assay type: cell-based; conditions: 24 hrs, β-actin loading control, FIG. 2 lower part
Description: Also to examine the effect at the protein level, whole cell extract was prepared from the cells treated with MDP for 24 hrs as described above, and 40 μg of extract was used for SDS-PAGE electrophoresis. Then the gel was transferred to a PVDF membrane and immunoblot was performed using an antibody specific to Runx2 (Abcam, USA). […] The β-actin was used as a loading control.

Runx2 [7] = assay: RT-PCR of Runx2 mRNA in MC4 cells; assay type: cell-based; conditions: 6 hrs, normalized relative to β-actin, FIG. 2 upper part
Description: Then, total mRNA was extracted from the cells and incubated with random primer at 70° C. for 5 min. After that reverse transcriptase, buffer for RT and dNTPs were added to the reaction mixture and incubated at 42° C. for 1 hr to synthesize cDNA, which was then used as a template for PCR to amplify Runx2 using specific primers as described in Table 1 and using the following condition: cDNA was initially denatured at 94° C. for 5 min followed by 25 cycles at 95° C. for 40 s, 59° C. for 40 s, and 72° C. for 40 s and final extension for 5 min at 72° C. […] The results were normalized relative to β-actin data.

osteoblast = assay: OPG and RANKL regulation in the osteoblast (data not shown); assay type: cell-based
WT C57BL/6 (B6) mice [8] = assay: Bone volume of mouse femur by microCT after MDP administration; assay type: in vivo
Description: Six-week-old WT C57BL/6 (B6) mice were purchased from Orient Company Ltd (Seoul, Korea). The animals were maintained at a controlled temperature (21±1° C.) and humidity (55±1%) with a 12/12-h light-dark cycle without any restriction of food and water. All animal experiments were performed following the protocol approved by the Institutional Animal Care and Use Committee of CRISNUH.
as §1
A right femur was removed from the sacrificed mouse and stripped of the muscle. The excised femur was then fixed in 10% of neutral formalin for one day at the least, which was then analyzed for bone volume using microCT. […] In FIG. 5, BV/TV=Bone volume/Tissue volume=% bone volume.

[9] = 1.25 mg/kg i.p. twice, vs physiological saline control, FIG. 5

Substance	expression of Runx2 at the transcriptional level (reporter) (Runx2 [1]; FIG. 3B)	activity on Runx2 compared with MDP (Runx2 [1]; higher than that of MDP, FIG. 3B) [times]	osteoclast differentiation from RANKL-primed osteoclast precursors [2]	bone loss due to GST-RANKL (bone volume, microCT) [3]	spongy bone in femur sections (H&E) (WT C57BL/6 (B6) mice [4])	differentiation of MC4 (ALP staining) [5]	expression of Runx2 protein (Runx2 [6])	mRNA expression of Runx2 (Runx2 [7])	luciferase activity (transcription of osteocalcin, affected by Runx2) (Runx2 [1]; MC4 cells, 24 hrs after addition, FIG. 3A)	Osteoprotegerin (OPG) regulation in the osteoblast (osteoblast)	RANKL regulation in the osteoblast (osteoblast)	indirect effect on osteoclast differentiation (osteoblast; through OPG and RANKL in the osteoblast)	bone volume (microCT 3D image) (WT C57BL/6 (B6) mice [8]; 1.25 mg/kg i.p. twice with 4 day interval, right femur, vs physiological saline, FIG. 4)	Trabecular bone volume (BV/TV) (WT C57BL/6 (B6) mice [8]; [9])	Trabecular number (Tb.N) (WT C57BL/6 (B6) mice [8]; [9])	Trabecular thickness (Tb.Th) (WT C57BL/6 (B6) mice [8]; [9])
6-O-stearoyl-N-acetylmuramyl-L-alanyl-D-isoglutamine [L18-MDP]	increased the expression of Runx2 at the transcriptional level	10	–	–	–	–	–	–	–	–	–	–	–	–	–	–
N-acetylmuramyl-L-Alanyl-D-Isoglutamine [MDP]	increased the expression of Runx2 at the transcriptional level	–	did not affect	reduced	more spongy bone was observed	increased in a concentration dependent manner	increased the expression of Runx2 protein	increased after MDP treatment in a concentration dependent manner	increased the transcription of osteocalcin	up-regulation	down-regulation	indirectly alleviated osteoclast differentiation	increase in bone volume	increased statistically significantly	increased statistically significantly	increased statistically significantly
N-acetylmuramyl-L-alanine-D-isoglutamine-lysine [MTnLYS]	increased the expression of Runx2 at the transcriptional level	–	–	–	–	–	–	–	–	–	–	–	–	–	–	–

Reference: patent US9884084B2, “Bone loss preventing and bone regeneration or bone formation promoting pharmaceutical composition comprising muramyl dipeptide” (SNU R&DB FOUNDATION, priority 2012, dated 2018)
